For test [1], the target named is T1, Short transient receptor potential channel 6 (Homo sapiens, UniProt Q9Y210).
T1 sequence (Q9Y210 whole entry): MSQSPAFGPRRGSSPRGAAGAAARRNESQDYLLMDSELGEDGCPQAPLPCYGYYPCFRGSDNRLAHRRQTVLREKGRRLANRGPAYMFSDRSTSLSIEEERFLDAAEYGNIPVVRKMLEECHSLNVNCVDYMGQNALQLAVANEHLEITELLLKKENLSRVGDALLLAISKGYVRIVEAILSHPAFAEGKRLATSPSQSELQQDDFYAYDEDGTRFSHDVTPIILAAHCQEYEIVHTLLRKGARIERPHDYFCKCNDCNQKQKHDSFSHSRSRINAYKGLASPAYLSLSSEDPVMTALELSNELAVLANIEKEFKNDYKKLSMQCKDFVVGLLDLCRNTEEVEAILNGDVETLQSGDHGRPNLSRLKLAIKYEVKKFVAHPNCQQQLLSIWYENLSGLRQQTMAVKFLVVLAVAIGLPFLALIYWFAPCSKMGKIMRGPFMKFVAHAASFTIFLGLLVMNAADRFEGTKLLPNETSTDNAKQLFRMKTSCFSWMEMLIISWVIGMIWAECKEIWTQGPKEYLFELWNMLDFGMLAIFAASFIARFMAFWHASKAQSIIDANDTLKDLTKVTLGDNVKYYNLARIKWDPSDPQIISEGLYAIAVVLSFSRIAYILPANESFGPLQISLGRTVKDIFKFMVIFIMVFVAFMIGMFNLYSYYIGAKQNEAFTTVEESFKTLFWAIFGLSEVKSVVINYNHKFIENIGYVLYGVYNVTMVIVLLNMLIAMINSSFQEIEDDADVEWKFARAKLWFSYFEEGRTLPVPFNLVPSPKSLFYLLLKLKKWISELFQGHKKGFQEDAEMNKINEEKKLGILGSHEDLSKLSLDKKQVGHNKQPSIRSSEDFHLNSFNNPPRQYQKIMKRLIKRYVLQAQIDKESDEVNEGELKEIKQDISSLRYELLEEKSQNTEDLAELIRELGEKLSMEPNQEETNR
Kind of test: Antagonist activity at TRPC6 (unknown origin) assessed as inhibition of channel activity.

In test [2] the target is T2, Short transient receptor potential channel 5 (Homo sapiens, UniProt Q9UL62).
T2 sequence (Q9UL62 whole entry): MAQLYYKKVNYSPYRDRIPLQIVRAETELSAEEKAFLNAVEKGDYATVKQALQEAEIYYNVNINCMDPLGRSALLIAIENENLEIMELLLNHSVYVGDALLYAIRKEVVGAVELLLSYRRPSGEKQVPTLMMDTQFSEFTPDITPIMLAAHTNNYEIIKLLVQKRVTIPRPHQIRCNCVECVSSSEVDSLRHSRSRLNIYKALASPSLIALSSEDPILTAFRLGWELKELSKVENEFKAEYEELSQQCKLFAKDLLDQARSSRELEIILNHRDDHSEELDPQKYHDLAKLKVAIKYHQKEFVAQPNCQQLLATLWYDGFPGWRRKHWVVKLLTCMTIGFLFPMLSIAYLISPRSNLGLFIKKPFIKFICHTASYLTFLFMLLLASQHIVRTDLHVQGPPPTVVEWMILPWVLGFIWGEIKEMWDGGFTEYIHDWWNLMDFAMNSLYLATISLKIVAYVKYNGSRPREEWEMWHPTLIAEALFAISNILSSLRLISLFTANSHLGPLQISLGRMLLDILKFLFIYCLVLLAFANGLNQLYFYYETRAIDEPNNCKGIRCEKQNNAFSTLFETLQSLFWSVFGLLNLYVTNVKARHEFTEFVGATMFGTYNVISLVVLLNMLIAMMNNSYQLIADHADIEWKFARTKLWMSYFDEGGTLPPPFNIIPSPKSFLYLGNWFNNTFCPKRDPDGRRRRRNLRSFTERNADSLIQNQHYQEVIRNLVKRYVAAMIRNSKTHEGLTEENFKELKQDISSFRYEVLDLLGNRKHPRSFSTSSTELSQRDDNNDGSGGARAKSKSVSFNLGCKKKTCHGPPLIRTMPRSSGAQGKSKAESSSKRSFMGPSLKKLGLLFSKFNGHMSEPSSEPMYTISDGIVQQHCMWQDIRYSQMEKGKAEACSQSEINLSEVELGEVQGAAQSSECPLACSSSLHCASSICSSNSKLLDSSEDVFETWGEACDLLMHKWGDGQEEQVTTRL
Kind of test: Antagonist activity at TRPC5 (unknown origin) assessed as inhibition of channel activity.

This note sets out measurements from ChEMBL document CHEMBL5518193, “Discovery of N-alkyl-N-benzyl thiazoles as novel TRPC antagonists for the treatment of glioblastoma multiforme” (Eur J Med Chem, 2024).

Molecules are shown by their SMILES.

As for `O=C1O/C(=C/Br)CCC1c1cccc2ccccc12` (configuration not stated) [BROMOENOL LACTONE], the half-inhibitory concentration (IC50) in test [1] worked out at 7.2 µM; in test [2], 10.6 µM.
